Data published in the supplement of paper PMC10307832.

Tests used:
Assay in all cases: relative viability (nuclei count vs DMSO), 5 days (fraction); higher = more cells survive
Wnt-C59 + Dasatinib = compound: CC1=NC=CC(=C1)C2=CC=C(C=C2)CC(=O)NC3=CC=C(C=C3)C4=CN=CC=C4 [Wnt-C59] + Cc1nc(Nc2ncc(C(=O)Nc3c(C)cccc3Cl)s2)cc(N2CCN(CCO)CC2)n1 [Dasatinib] (partner 0.075 µM)
How it was run: (§1)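 The day after seeding in 1536-well plates, lung cancer cell lines were treated by pin tool with a single drug, or with a fixed anchor-drug dose together with five library-drug doses (not always all listed) in √10 steps. After 5 days, a combined fix-and-stain solution (final 0.05% Triton X-100, 1% formaldehyde, 1 ug/ml Hoechst) was added. Nuclei counted on 4× images gave relative viability as treated counts over vehicle counts, reported as the median of duplicate plates.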

Lapatinib + Vorinostat = compound: CS(=O)(=O)CCNCc1ccc(-c2ccc3ncnc(Nc4ccc(OCc5cccc(F)c5)c(Cl)c4)c3c2)o1 [Lapatinib] + O=C(CCCCCCC(=O)Nc1ccccc1)NO [Vorinostat] (partner 1 µM)
How it was run: as §1

Lapatinib = compound: CS(=O)(=O)CCNCc1ccc(-c2ccc3ncnc(Nc4ccc(OCc5cccc(F)c5)c(Cl)c4)c3c2)o1 [Lapatinib]
How it was run: (§2)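 Nuclei counted with MetaXpress define viability as the ratio of treated to vehicle wells, given as a median across plates. The lung cancer cell lines were in 1536-well plates, pinned with five √10-spaced library-drug doses and imaged at 4× after 5 days and Hoechst staining. Plates passed with control CV below 25% and at least one doubling.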

Wnt-C59 = compound: CC1=NC=CC(=C1)C2=CC=C(C=C2)CC(=O)NC3=CC=C(C=C3)C4=CN=CC=C4 [Wnt-C59]
How it was run: as §2

Cell Line	relative viability (Wnt-C59 + Dasatinib; first compound 0.001 µM)	relative viability (Wnt-C59 + Dasatinib; first compound 0.01 µM)	relative viability (Wnt-C59 + Dasatinib; first compound 0.03162 µM)	relative viability (Wnt-C59 + Dasatinib; first compound 0.1 µM)	relative viability (Lapatinib + Vorinostat; first compound 0.02 µM)	relative viability (Lapatinib + Vorinostat; first compound 0.06325 µM)	relative viability (Lapatinib + Vorinostat; first compound 0.2 µM)	relative viability (Lapatinib + Vorinostat; first compound 0.6325 µM)	relative viability (Lapatinib + Vorinostat; first compound 2 µM)	relative viability (Lapatinib; 0.02 µM)	relative viability (Lapatinib; 0.06325 µM)	relative viability (Lapatinib; 0.2 µM)	relative viability (Lapatinib; 0.6325 µM)	relative viability (Wnt-C59; 0.001 µM)	relative viability (Wnt-C59; 0.01 µM)	relative viability (Wnt-C59; 0.03162 µM)	relative viability (Wnt-C59; 0.1 µM)	relative viability (Lapatinib; 2 µM)	relative viability (Lapatinib; 2 µM, anchor plate)
HCC-827	0.386	0.305	0.366	0.428	0.76	0.868	0.706	0.802	0.869	0.91	0.983	1.05	1	1.1	1.05	1.02	1.06	–	–
NCI-H522	0.92	0.752	0.875	0.882	–	0.822	1	0.839	0.902	–	0.746	0.855	1.01	1.04	0.927	0.994	0.957	0.791	–
SW 900	0.545	0.708	0.768	0.624	–	0.516	0.476	0.468	0.408	–	0.765	0.958	0.836	0.681	0.755	0.793	0.823	0.712	–
SK-LU-1	0.184	0.187	0.198	0.187	0.681	0.747	0.829	0.776	0.802	0.799	0.89	1.01	1.11	1	0.987	1.01	1.01	1.03	0.85
HCC-366	0.678	0.621	0.594	0.487	–	0.275	0.391	0.352	0.202	–	1.02	0.981	1.02	0.993	0.997	1.06	0.976	0.99	1.02
EPLC-272H	0.399	0.269	0.399	0.36	0.636	0.328	0.457	0.583	0.391	–	0.733	0.959	1	1.01	0.886	1.15	0.987	0.783	0.993
NCI-H322M	0.266	0.26	0.216	0.228	0.947	0.749	0.786	0.92	0.683	0.886	0.717	0.896	0.882	0.999	0.859	0.84	0.867	0.733	0.598
NCI-H1944	0.24	0.218	0.195	0.179	0.514	0.511	0.461	0.459	0.437	0.781	0.658	0.964	0.853	0.956	0.945	1.07	1.01	0.757	0.846
NCI-H2228	0.503	0.429	0.615	0.524	0.774	0.7	0.907	0.517	0.48	0.902	0.857	0.823	1.04	1.01	0.819	0.891	0.868	0.863	1.14
NCI-H1755	0.429	0.405	0.436	0.41	0.731	0.689	0.801	0.76	0.676	1.01	0.914	0.936	0.967	0.994	0.969	0.999	0.914	0.981	1.03
ChaGo-K-1	0.659	0.606	0.65	0.606	0.53	0.731	0.747	0.78	0.545	0.789	0.943	0.945	1	0.951	1.01	1.03	0.958	0.797	–
NCI-H2170	0.549	0.354	0.601	0.555	0.726	0.747	0.578	0.582	0.372	0.953	0.913	0.762	0.72	0.997	0.879	0.939	0.975	0.332	0.276
LXF-289	0.251	0.25	0.231	0.221	0.474	0.709	0.83	0.664	0.673	0.923	0.993	0.96	0.957	0.983	0.993	0.999	0.976	0.869	0.915
LCLC-97TM1	0.764	0.75	0.772	0.889	–	0.316	0.953	0.681	0.687	–	–	1.08	1	1.04	0.908	1.07	1.06	1.03	1.01
NCI-H2347	0.35	0.295	0.327	0.306	0.501	0.629	0.554	0.689	0.547	0.7	0.999	0.943	1.05	1.05	1.01	1.03	0.997	0.904	0.905
PC-3 [JPC-3]	1.01	1.05	1.13	1.07	–	0.804	–	0.637	0.495	–	1	0.991	0.977	1.04	1.06	1.05	1.14	0.755	0.46
H3255	0.425	0.359	0.32	0.335	–	0.697	0.741	0.816	0.293	0.908	0.936	0.938	0.889	1.03	0.887	1.06	0.966	0.489	0.25
HOP-62	0.696	0.66	0.716	0.697	–	0.631	0.639	0.678	0.655	0.7	1.04	1.01	1.02	0.998	1	1.06	0.953	1.01	1.04

Cell Line	relative viability (Wnt-C59 + Dasatinib; first compound 0.001 µM)	relative viability (Wnt-C59 + Dasatinib; first compound 0.01 µM)	relative viability (Wnt-C59 + Dasatinib; first compound 0.03162 µM)	relative viability (Wnt-C59 + Dasatinib; first compound 0.1 µM)	relative viability (Lapatinib + Vorinostat; first compound 0.02 µM)	relative viability (Lapatinib + Vorinostat; first compound 0.06325 µM)	relative viability (Lapatinib + Vorinostat; first compound 0.2 µM)	relative viability (Lapatinib + Vorinostat; first compound 0.6325 µM)	relative viability (Lapatinib + Vorinostat; first compound 2 µM)	relative viability (Lapatinib; 0.02 µM)	relative viability (Lapatinib; 0.06325 µM)	relative viability (Lapatinib; 0.2 µM)	relative viability (Lapatinib; 0.6325 µM)	relative viability (Wnt-C59; 0.001 µM)	relative viability (Wnt-C59; 0.01 µM)	relative viability (Wnt-C59; 0.03162 µM)	relative viability (Wnt-C59; 0.1 µM)	relative viability (Lapatinib; 2 µM)	relative viability (Lapatinib; 2 µM, anchor plate)
LK-2	0.379	0.372	0.268	0.292	0.173	–	0.222	0.325	0.357	0.852	–	0.914	1.13	0.958	0.982	0.993	1.12	1.11	1.02
NCI-H441	0.56	0.637	0.615	0.298	0.713	–	0.84	0.757	0.887	–	0.735	0.995	1.09	1.11	1.22	1.1	0.993	1.36	–
PC-14	0.309	0.257	0.242	0.241	0.652	0.55	0.76	0.732	0.0919	0.914	0.954	0.965	0.958	1.09	1.1	1	1	0.644	0.343
EMC-BAC-2	0.327	0.36	0.34	0.341	–	0.336	–	0.531	0.522	–	0.8	0.734	0.985	0.891	0.874	0.868	0.962	1.04	0.917
NCI-H358	0.177	0.154	0.145	0.152	0.596	0.418	0.511	0.362	0.215	0.693	0.478	0.611	0.569	1.01	0.785	0.957	0.975	0.335	0.474
NCI-H2087	0.733	0.868	0.943	0.806	0.547	0.843	0.728	0.604	0.671	0.786	0.833	1.12	0.952	1.07	0.922	0.971	1.01	0.975	0.983
NCI-H1355	0.725	0.533	0.711	0.617	0.574	0.541	0.568	0.61	0.395	–	0.828	0.938	0.972	1.02	0.885	1.01	0.905	0.746	1
SK-MES-1	0.393	0.264	0.39	0.337	0.967	0.98	1.15	1.18	0.369	0.94	0.902	0.886	0.776	1.01	1.05	1.06	0.993	0.462	0.497
NCI-H1793	0.431	–	0.468	0.355	–	0.495	0.646	0.646	0.42	–	0.642	0.732	0.803	0.78	0.681	1.1	0.976	0.544	0.714
COR-L23	0.483	0.571	0.641	0.413	0.422	0.522	0.558	0.553	0.393	0.978	1	1.11	0.919	0.961	1.01	1.07	0.963	1.02	0.934
HCC-15	0.667	0.634	0.644	0.574	–	0.779	0.813	0.858	0.693	–	0.847	1.06	1.01	1.05	1.01	1.07	0.981	0.919	0.836
NCI-H2023	0.563	0.538	0.628	0.333	–	0.402	0.603	0.612	0.552	0.796	0.744	0.926	0.998	0.948	1.03	1.15	0.801	0.823	0.862
ABC-1	0.509	0.605	0.506	0.592	0.929	1.02	–	1	1.18	0.721	0.793	0.939	1.04	0.938	1.01	1.01	0.952	0.912	1.18
HARA	0.249	0.208	0.293	0.32	–	0.452	0.443	0.467	0.427	0.52	0.749	0.943	0.93	0.952	0.874	1.19	1.02	0.755	0.77
EKVX	0.575	0.511	0.527	0.451	–	0.476	0.48	0.426	0.26	0.645	0.755	0.943	0.811	1.03	0.759	1.01	0.832	0.336	0.216
HCC-78	0.392	0.428	0.387	0.419	–	0.318	0.39	0.388	0.375	–	0.734	0.922	0.935	0.814	1.02	0.99	1.12	0.793	0.801
NCI-H1395	0.406	0.398	0.423	0.444	–	0.704	0.779	0.789	0.646	–	0.896	1.02	0.919	0.995	0.873	0.952	1.03	0.742	1.05
